This note sets out measurements from US4774259A, “Phenylalanine derivatives and uses thereof” (Ajinomoto Co., Inc., priority 1985, dated 1988).

The structures appear in SMILES notation.

Series [1] can be described thus: Absorption promoting test of insulin, oral, mice (Example 3): blood glucose value. Type of series: in vivo, female ICR-CDI mice. The following applies: for decrease in the blood glucose value (in words): oral with insulin, compared with a control group. The method, then:
A test for the promotion of the absorption of insulin was carried out upon the above-described absorption promoters and upon two known absorption promoting agents. Thus, insulin in a prescribed dose (23.3 unit/mg) and the absorption promoter, as given in the Table below, were dissolved or suspended in a 0.05M phosphate buffer. Then groups of five female ICR-CDI mice, 6 to 7 weeks old, which had not been fed for 18 hours, were orally administered with the predetermined buffer solution (0.5 ml). A predetermined time later, the blood glucose value of each group of mice was determined.

In a further series the test system is male ICR mice. The series is described as follows: Toxicity test, oral LD50, mice (Example 4). Format: in vivo. The following applies: compared with known absorption promoting agents. The method, then: Predetermined amounts of the absorption promoters listed in the Table were each suspended in 0.5% CMC sodium salt solution. Groups of ten male ICR mice, 4 weeks old, were orally administered with the suspension. Two weeks thereafter, the LD50 values were determined.

A short description of series [2]: Absorption promoting test of insulin, oral, mice (Example 7): blood glucose and immunoreactive insulin. Format: in vivo, female ICR-CDl mice. The following applies: for Decrease in Blood Glucose / Degree of increase of Blood Insulin: insulin 0.5 unit/10 g, promoter 3 mg/10 g, oral, compared with phosphate buffer control; for effect on decreasing the blood glucose value and increasing the blood insulin level (in words): oral with insulin. The procedure: A test for the absorption of insulin was carried out with absorption promoters of the present invention. Thus, insulin (0.5 unit/10 g weight) and the absorption promoter (3 mg/10 g weight) were suspended in a 0.05M phosphate buffer. Then the group of five female ICR-CDl mice, 5 to 7 weeks old, which were fasted for 18 hours, were orally administered with the prepared suspension.
The blood glucose value and the immunoreactive insulin level of each group of mice were determined at the fixed time.
The percent decrease in blood glucose and the degree of increase of blood insulin as compared with a phosphate buffer control group were shown in Table 2.

As for `Cc1ccc(C=CC(=O)N[C@@H](Cc2ccccc2)C(=O)O)cc1` [N-(4-methylcinnamoyl)-L-phenylalanine], in series [1] (insulin 50 unit/kg, absorption promoter 150 mg/kg, oral, 30 minutes, control 82.4 ± 8.1), the “Blood Glucose” value is 78.0 ± 7.8 mg/dL. In addition, the “decrease in the blood glucose value (in words)” value (from here on “decrease … (in words)”) in series [1] is recorded as “small”.
`Cc1ccc(C=C(F)C(=O)N[C@H](Cc2ccccc2)C(=O)O)cc1` [N-(α-fluoro-4-methylcinnamoyl)-D-phenylalanine]: the “decrease … (in words)” value in series [1] is listed as “excellent effect in decreasing the blood glucose value”. The “LD50 value (in words)” value in the series with male ICR mice was “excellent LD50 value”.
In the same order, the values of `Cc1ccc(C=C(F)C(=O)N[C@@H](Cc2ccccc2)C(=O)O)cc1` [N-(α-fluoro-4-methylcinnamoyl)-L-phenylalanine] are “excellent effect in decreasing the blood glucose value” and “excellent LD50 value”.
`O=C(N[C@@H](Cc1ccccc1)C(=O)O)C(F)=Cc1ccccc1` [N-(α-fluorocinnamoyl)-L-phenylalanine]: the “decrease … (in words)” value in series [1] was “small”.
For `Cc1ccc(C(Cl)=CC(=O)N[C@H](Cc2ccccc2)C(=O)O)cc1` [N-(β-chloro-4-methylcinnamoyl)-D-phenylalanine], the “Decrease in Blood Glucose” value in series [2] (15 minutes) is 35.7%; in series [2] (30 minutes), 47.8%; in series [2] (60 minutes) it was 42.8%. Besides, the “Degree of increase of Blood Insulin” value was found to be 2.1 in series [2] (15 minutes), 3.3 in series [2] (30 minutes) and 1.0 in series [2] (60 minutes). For the same compound, the “effect on decreasing the blood glucose value and increasing the blood insulin level (in words)” value in series [2] is “excellent effect on decreasing the blood glucose value and increasing the blood insulin level”.
As to `Cc1ccc(C(Cl)=CC(=O)N[C@@H](Cc2ccccc2)C(=O)O)cc1` [N-(β-chloro-4-methylcinnamoyl)-L-phenylalanine], the “Decrease in Blood Glucose” value in series [2] (15 minutes) came out at 42.1%; in series [2] (30 minutes), 21.6%; in series [2] (60 minutes), 12.1%. Also, the entries for the “Degree of increase of Blood Insulin” value in series [2] (15 minutes), in series [2] (30 minutes) and in series [2] (60 minutes) were 10.5, 2.0 and 2.1, respectively. Also, the “effect on decreasing the blood glucose value and increasing the blood insulin level (in words)” value in series [2] is “excellent effect on decreasing the blood glucose value and increasing the blood insulin level”.
